This is an account of results in patent US5095011A, “Lyophilized cefepime dihydrochloride for parenteral use” (priority 1990, dated 1992).

A short description of data set [1]: Stability of lyophilized amorphous BMY-28142 salts (dry, sealed vials). The settings on record: for expected shelf life: extrapolated from stability tests; for remaining at 168 h: 1 week; for remaining at 336 h: 2 weeks; for remaining at 672 h: 4 weeks; for remaining at 1008 h: 6 weeks; for remaining at 2184 h: 13 weeks; for remaining at 6888 h: 41 weeks. In kind it is physicochemical. The method, then:
[…] of BMY-28142 Zi was dissolved qs to 33 ml with 1.9 ml of 1N-HCl and water for injection (pH=2.0).
One ml portion (approximately 65 mg/ml) of the solution were placed into 10cc flint vials which were loosely stoppered with split lyphlization stoppers, frozen to -40° C. and lyphilized at a shelf temperature of 0° C. for 24 hours, then at 24° C. for 24 hours and at 32.2° C. for four hours. The vials were then sealed with aluminum closures and tested for stability at 56°, 45° and 37° C.

Data set [2] is classed as physicochemical. The settings on record: water for injection. The method, then: 375 mg L(+)-Arginine for injection is reconstituted with 4.45 ml of sterile water for injection. The solution is taken up in a syringe and is added to a vial containing lyophilized BMY-28142-2HCl having an activity of 500 mg activity per vial. This solution produces a reconstituted solution suitable for injection which has an activity of about 100 mg BMY-28142 per milliliter.
Control of the amount of water used for dilution permitted the attainment of high concentrations up to 400 mg BMY-28142 per ml.

A further data set deals with various organisms. The conditions noted are these: U.S. Pat. No. 4,406,899; amorphous zwitterionic form; cited from earlier work.
[3] abbreviates: dry lyophilized solid, 45° C., second lot, separately prepared.

Counter-ions that a name gives are not always drawn.

In general, share remaining refers to what is left of the initial amount, in per cent. Take `CO/N=C(\C(=O)NC1C(=O)N2C(C(=O)[O-])=C(C[N+]3(C)CCCC3)CSC12)c1csc(N)n1` (stereo not drawn) [Di-HCl, 7-[α-(2-aminothiazol-4-yl)-α-(Z)-methoxyiminoacetamido]-3-[(1-methyl-1-pyrrolidinium)methyl]-3-cephem-4-carboxylate]: in data set [1], the “stability of lyophile compared with other lyophilized amorphous salts” value is “unexpectedly more stable than the lyophilized, amorphous sesqui-H3 PO4, mono-H2 SO4 and mono-HCl salts”. The expected shelf life result in data set [1] (4° C.) is reported as “at least 24 months”; in data set [1] (room temperature), “at least 12 months”. For the same compound, the share remaining at 168 h in data set [1] (dry lyophilized solid, 45° C.) turned out to be 99.8%; in data set [1] (setting [3]), 100%. Besides, the fraction remaining at 336 h in data set [1] (dry lyophilized solid, 45° C.) amounted to 97.2%; in data set [1] (dry lyophilized solid, 56° C., second lot, separately prepared) it was 91.8%. Further, the share remaining at 672 h in data set [1] (dry lyophilized solid, 37° C.) came to 98.6%; in data set [1] (setting [3]), 92.5%. In data set [1] (dry lyophilized solid, 6 months, 25° C., second lot, separately prepared), the share remaining at 4320 h came to 100%. Moreover, the amount remaining at 1008 h in data set [1] (dry lyophilized solid, 37° C., second lot, separately prepared) amounted to 97.2%. In addition, the fraction remaining at 1344 h in data set [1] (dry lyophilized solid, 8 weeks, 56° C.) amounted to 87%. Besides, the share remaining at 2184 h in data set [1] (dry lyophilized solid, 37° C.) was found to be 95.5%; in data set [1] (dry lyophilized solid, 45° C.), 91.6%. In data set [1] (dry lyophilized solid, 26 weeks, 45° C.), the amount remaining at 4368 h stood at 87.7%. The fraction remaining at 6888 h worked out at 98.1% in data set [1] (dry lyophilized solid, 25° C.) and 91.7% in data set [1] (dry lyophilized solid, 37° C.). The amount remaining at 8736 h in data set [1] (dry lyophilized solid, 52 weeks, 25° C., second lot, separately prepared) came to 100%.
As to `CO/N=C(\C(=O)N[C@@H]1C(=O)N2C(C(=O)[O-])=C(C[N+]3(C)CCCC3)CS[C@H]12)c1csc(N)n1` [BMY-28142, 7-[α-(2-aminothiazol-4-yl)-α-(Z)-methoxyiminocetamido]-3-[(1-methyl-1-pyrrolidinium)methyl]-3-cephem-4-carboxylate], in data set [2], the “concentration attained on reconstitution” value is given as “up to 400 mg per ml”. The “antibacterial spectrum of activity” value in the data set on various organisms is “broader spectrum activity than ceftazidime and cefotaxime”.
Take `CO/N=C(\C(=O)NC1C(=O)N2C(C(=O)[O-])=C(C[N+]3(C)CCCC3)CSC12)c1csc(N)n1` (stereo not shown) [Sesqui-PO4]: in data set [1] (dry lyophilized solid, 56° C.), the amount remaining at 168 h is 75%. In addition, the share remaining at 1008 h in data set [1] (dry lyophilized solid, 37° C.) was determined as 79%.
